According to PubChem BioAssay (NCI):
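Following 48 hours of exposure in 96-well plates, responses at five concentrations were used to interpolate endpoints linearly. GI50 is the concentration that inhibits growth by half. TGI is the concentration that stops growth completely.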

Assays:
Assay in all cases: inhibition of tumour cell growth, NCI panel, 48 h
[1] = tested on: 786-0 renal
[2] = tested on: A498 renal
[3] = tested on: A549 NSCLC
[4] = tested on: ACHN renal
[5] = tested on: BT-549 breast
[6] = tested on: CAKI-1 renal
[7] = tested on: CCRF-CEM leukemia
[8] = tested on: COLO 205 colon
[9] = tested on: DU-145 prostate
[10] = tested on: EKVX NSCLC
[11] = tested on: HCC-2998 colon
[12] = tested on: HCT-116 colon
[13] = tested on: HCT-15 colon
[14] = tested on: HL-60(TB) leukemia
[15] = tested on: HOP-62 NSCLC
[16] = tested on: HOP-92 NSCLC
[17] = tested on: HS 578T breast
[18] = tested on: HT29 colon
[19] = tested on: IGROV1 ovarian
[20] = tested on: K-562 leukemia
[21] = tested on: KM12 colon
[22] = tested on: M14 melanoma
[23] = tested on: MALME-3M melanoma
[24] = tested on: MCF7 breast
[25] = tested on: MDA-MB-231 breast
[26] = tested on: MDA-MB-435
[27] = tested on: MOLT-4 leukemia
[28] = tested on: NCI-H226 lung
[29] = tested on: NCI-H23 lung
[30] = tested on: NCI-H460 lung
[31] = tested on: NCI-H522 lung
[32] = tested on: NCI/ADR-RES ovarian
[33] = tested on: OVCAR-3 ovarian
[34] = tested on: OVCAR-5 ovarian
[35] = tested on: OVCAR-8 ovarian
[36] = tested on: PC-3 prostate
[37] = tested on: RXF 393 renal
[38] = tested on: SF-268 CNS
[39] = tested on: SF-295 CNS
[40] = tested on: SF-539 CNS
[41] = tested on: SK-MEL-2 melanoma
[42] = tested on: SK-MEL-28 melanoma
[43] = tested on: SK-MEL-5 melanoma
[44] = tested on: SK-OV-3 ovarian
[45] = tested on: SN12C renal
[46] = tested on: SNB-19 CNS
[47] = tested on: SNB-75 CNS
[48] = tested on: SW-620 colon
[49] = tested on: T-47D breast
[50] = tested on: TK-10 renal
[51] = tested on: U251 CNS
[52] = tested on: UACC-257 melanoma
[53] = tested on: UACC-62 melanoma
[54] = tested on: UO-31 renal

Q: `COC(=O)c1ccc(NC2=C/C(=N/S(=O)(=O)c3ccc(C(=O)O)cc3)c3ccccc3C2=O)cc1` was tested. Which GI50 [1] did it give?
A: Its GI50 is 10.9 µM.

Q: And the TGI [1]?
A: The TGI was 58.4 µM.

Q: And the GI50 [2]?
A: The GI50 was 22.9 µM.

Q: And the TGI [2]?
A: Its TGI is 42.4 µM.

Q: What about the GI50 [3] of the same molecule?
A: The GI50 was 29.8 µM.

Q: What about the TGI [3] of the same molecule?
A: Its TGI is greater than 100 µM.

Q: And the GI50 [4]?
A: Its GI50 is 1.88 µM.

Q: And the TGI [4]?
A: The TGI was 4.19 µM.

Q: And the GI50 [5]?
A: Its GI50 is 15 µM.

Q: What about the TGI [5] of the same molecule?
A: Its TGI is 32.6 µM.

Q: And the GI50 [6]?
A: The GI50 was 10 µM.

Q: What about the TGI [6] of the same molecule?
A: The TGI was 23.1 µM.

Q: What about the GI50 [7] of the same molecule?
A: Its GI50 is 3.21 µM.

Q: And the TGI [7]?
A: The TGI was greater than 100 µM.

Q: What about the GI50 [8] of the same molecule?
A: Its GI50 is 17.7 µM.

Q: What about the TGI [8] of the same molecule?
A: Its TGI is 38.1 µM.

Q: What about the GI50 [9] of the same molecule?
A: Its GI50 is 11.7 µM.

Q: What about the TGI [9] of the same molecule?
A: Its TGI is 24.7 µM.

Q: What about the GI50 [10] of the same molecule?
A: The GI50 was 2.1 µM.

Q: What about the TGI [10] of the same molecule?
A: Its TGI is 5.83 µM.

Q: What about the GI50 [11] of the same molecule?
A: The GI50 was 10.4 µM.

Q: And the TGI [11]?
A: Its TGI is 27 µM.

Q: And the GI50 [12]?
A: Its GI50 is 2.81 µM.

Q: What about the TGI [12] of the same molecule?
A: Its TGI is 10.2 µM.

Q: And the GI50 [13]?
A: The GI50 was 11 µM.

Q: And the TGI [13]?
A: The TGI was 35.5 µM.

Q: And the GI50 [14]?
A: Its GI50 is 2.55 µM.

Q: What about the TGI [14] of the same molecule?
A: Its TGI is 6.52 µM.

Q: And the GI50 [15]?
A: Its GI50 is 17.3 µM.

Q: And the TGI [15]?
A: The TGI was 38.3 µM.

Q: What about the GI50 [16] of the same molecule?
A: The GI50 was 3.71 µM.

Q: And the TGI [16]?
A: Its TGI is 15.6 µM.

Q: And the GI50 [17]?
A: Its GI50 is 3.36 µM.

Q: What about the TGI [17] of the same molecule?
A: The TGI was 48 µM.

Q: And the GI50 [18]?
A: Its GI50 is 21.3 µM.

Q: And the TGI [18]?
A: Its TGI is 47.4 µM.

Q: What about the GI50 [19] of the same molecule?
A: Its GI50 is 4.92 µM.

Q: What about the TGI [19] of the same molecule?
A: The TGI was 20.8 µM.

Q: And the GI50 [20]?
A: The GI50 was 3.19 µM.

Q: And the TGI [20]?
A: The TGI was greater than 100 µM.

Q: And the GI50 [21]?
A: The GI50 was 10.7 µM.

Q: And the TGI [21]?
A: Its TGI is 25.3 µM.

Q: And the GI50 [22]?
A: Its GI50 is 5.7 µM.

Q: And the TGI [22]?
A: The TGI was 23.9 µM.

Q: And the GI50 [23]?
A: Its GI50 is 1.89 µM.

Q: What about the TGI [23] of the same molecule?
A: The TGI was 3.52 µM.

Q: And the GI50 [24]?
A: The GI50 was 1.89 µM.

Q: What about the TGI [24] of the same molecule?
A: The TGI was 4.4 µM.

Q: What about the GI50 [25] of the same molecule?
A: Its GI50 is 2.51 µM.

Q: What about the TGI [25] of the same molecule?
A: Its TGI is 8.1 µM.

Q: And the GI50 [26]?
A: Its GI50 is 1.95 µM.

Q: What about the TGI [26] of the same molecule?
A: Its TGI is 3.67 µM.

Q: And the GI50 [27]?
A: The GI50 was 1.74 µM.

Q: And the TGI [27]?
A: Its TGI is 4.47 µM.

Q: What about the GI50 [28] of the same molecule?
A: Its GI50 is 15.2 µM.

Q: And the TGI [28]?
A: The TGI was 34.6 µM.

Q: And the GI50 [29]?
A: Its GI50 is 3.18 µM.

Q: And the TGI [29]?
A: Its TGI is 18.2 µM.

Q: What about the GI50 [30] of the same molecule?
A: The GI50 was 20.6 µM.

Q: What about the TGI [30] of the same molecule?
A: Its TGI is 50.8 µM.

Q: And the GI50 [31]?
A: The GI50 was 1.92 µM.

Q: And the TGI [31]?
A: The TGI was 4.76 µM.

Q: What about the GI50 [32] of the same molecule?
A: The GI50 was 3.06 µM.

Q: And the TGI [32]?
A: Its TGI is 11.8 µM.

Q: And the GI50 [33]?
A: The GI50 was 2.17 µM.

Q: What about the TGI [33] of the same molecule?
A: Its TGI is 5.94 µM.

Q: What about the GI50 [34] of the same molecule?
A: Its GI50 is 14 µM.

Q: And the TGI [34]?
A: Its TGI is 33.4 µM.

Q: What about the GI50 [35] of the same molecule?
A: The GI50 was 3.2 µM.

Q: And the TGI [35]?
A: Its TGI is 46.2 µM.

Q: What about the GI50 [36] of the same molecule?
A: The GI50 was 3.4 µM.

Q: What about the TGI [36] of the same molecule?
A: The TGI was 25.3 µM.

Q: What about the GI50 [37] of the same molecule?
A: The GI50 was 8.1 µM.

Q: What about the TGI [37] of the same molecule?
A: The TGI was 22.4 µM.

Q: What about the GI50 [38] of the same molecule?
A: Its GI50 is 6.33 µM.

Q: What about the TGI [38] of the same molecule?
A: The TGI was 37.5 µM.

Q: And the GI50 [39]?
A: The GI50 was 11.7 µM.

Q: What about the TGI [39] of the same molecule?
A: Its TGI is 26.9 µM.

Q: What about the GI50 [40] of the same molecule?
A: Its GI50 is 1.79 µM.

Q: And the TGI [40]?
A: The TGI was 3.38 µM.

Q: What about the GI50 [41] of the same molecule?
A: Its GI50 is 2.35 µM.

Q: What about the TGI [41] of the same molecule?
A: Its TGI is 6.51 µM.

Q: And the GI50 [42]?
A: The GI50 was 2.46 µM.

Q: What about the TGI [42] of the same molecule?
A: The TGI was 5.89 µM.

Q: What about the GI50 [43] of the same molecule?
A: The GI50 was 3.18 µM.

Q: What about the TGI [43] of the same molecule?
A: Its TGI is 10.1 µM.

Q: And the GI50 [44]?
A: Its GI50 is 21 µM.

Q: What about the TGI [44] of the same molecule?
A: The TGI was 44.5 µM.

Q: What about the GI50 [45] of the same molecule?
A: The GI50 was 2.13 µM.

Q: And the TGI [45]?
A: Its TGI is 5.15 µM.

Q: What about the GI50 [46] of the same molecule?
A: Its GI50 is 16.9 µM.

Q: And the TGI [46]?
A: The TGI was 33.2 µM.

Q: And the GI50 [47]?
A: The GI50 was 2.1 µM.

Q: What about the TGI [47] of the same molecule?
A: Its TGI is 10.1 µM.

Q: And the GI50 [48]?
A: Its GI50 is 2.78 µM.

Q: And the TGI [48]?
A: Its TGI is greater than 100 µM.

Q: What about the GI50 [49] of the same molecule?
A: Its GI50 is 3.19 µM.

Q: And the TGI [49]?
A: The TGI was 26.8 µM.

Q: And the GI50 [50]?
A: The GI50 was 25.2 µM.

Q: What about the TGI [50] of the same molecule?
A: The TGI was 42.8 µM.

Q: And the GI50 [51]?
A: The GI50 was 4.01 µM.

Q: What about the TGI [51] of the same molecule?
A: The TGI was 28.8 µM.

Q: What about the GI50 [52] of the same molecule?
A: The GI50 was 2.06 µM.

Q: What about the TGI [52] of the same molecule?
A: The TGI was 4.6 µM.

Q: And the GI50 [53]?
A: The GI50 was 2.08 µM.

Q: And the TGI [53]?
A: The TGI was 4.55 µM.

Q: What about the GI50 [54] of the same molecule?
A: The GI50 was 2.94 µM.

Q: What about the TGI [54] of the same molecule?
A: The TGI was 15.3 µM.
